According to the supplement of paper PMC11061612:

What was measured:
Capivasertib = compound: C1CN(CCC1(C(=O)N[C@@H](CCO)C2=CC=C(C=C2)Cl)N)C3=NC=NC4=C3C=CN4 [Capivasertib]
How it was run: (§1)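 Cancer cell lines were plated in 1536-well plates in 7.5 μl of DMEM/F12 or RPMI with 10% FBS and kept 24 hours at 37°C and 5% CO2 before 72 hours of dosing, with final DMSO typically 0.2%. CellTiter-Glo 2.0 luminescence measured viability, scaled between blank-well and DMSO-well means. Dose responses were fitted to a two-parameter logistic curve with a non-linear mixed effects model. This fit gives the single-agent IC50.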

AZD1775 = compound: C=CCn1c(=O)c2cnc(Nc3ccc(N4CCN(C)CC4)cc3)nc2n1-c1cccc(C(C)(C)O)n1 [AZD1775]
How it was run: as §1

Trametinib = compound: CC(=O)Nc1cccc(-n2c(=O)n(C3CC3)c(=O)c3c(Nc4ccc(I)cc4F)n(C)c(=O)c(C)c32)c1 [Trametinib]; settings: max 1 µM
How it was run: as §1

Palbociclib = compound: CC(=O)c1c(C)c2cnc(Nc3ccc(N4CCNCC4)cn3)nc2n(C2CCCC2)c1=O [Palbociclib]; settings: max 10 µM
How it was run: as §1

AZD1390 = compound: CC(C)n1c(=O)n(C)c2cnc3cc(F)c(-c4ccc(OCCCN5CCCCC5)nc4)cc3c21 [AZD1390]; settings: max 0.3 µM
How it was run: as §1

Venetoclax = compound: CC1(C)CCC(CN2CCN(c3ccc(C(=O)NS(=O)(=O)c4ccc(NCC5CCOCC5)c([N+](=O)[O-])c4)c(Oc4cnc5[nH]ccc5c4)c3)CC2)=C(c2ccc(Cl)cc2)C1 [Venetoclax]; settings: max 1 µM
How it was run: as §1

Dasatinib = compound: CC1=C(C(=CC=C1)Cl)NC(=O)C2=CN=C(S2)NC3=CC(=NC(=N3)C)N4CCN(CC4)CCO [Dasatinib]; settings: max 2 µM
How it was run: as §1

SG3199 = compound: CC1=CN2[C@@H](C1)C=NC3=CC(=C(C=C3C2=O)OC)OCCCCCOC4=C(C=C5C(=C4)N=C[C@@H]6CC(=CN6C5=O)C)OC [SG3199]; settings: max 0.001 µM
How it was run: as §1

AZD2811 = compound: CCN(CCO)CCCOc1ccc2c(Nc3cc(CC(=O)Nc4cccc(F)c4)[nH]n3)ncnc2c1 [AZD2811]; settings: max 1 µM
How it was run: as §1

SN-38 = compound: CCc1c2c(nc3ccc(O)cc13)-c1cc3c(c(=O)n1C2)COC(=O)[C@]3(O)CC [SN-38]; settings: max 0.3 µM
How it was run: as §1

AZD0156 = compound: CN(C)CCCOc1ccc(-c2ccc3ncc4c(c3c2)n(C2CCOCC2)c(=O)n4C)cn1 [AZD0156]
How it was run: as §1

AZD4320 = compound: CN(CC[C@H](CSC1=CC=CC=C1)NC2=C(C=C(C=C2)S(=O)(=O)NC(=O)C3=CC=C(C=C3)N4CCC(CC4)[C@H](C5=CC=CC=C5C6=CC=C(C=C6)Cl)O)S(=O)(=O)C(F)(F)F)CCO [AZD4320]; settings: max 1 µM
How it was run: as §1

Alisertib = compound: COc1cc(Nc2ncc3c(n2)-c2ccc(Cl)cc2C(c2c(F)cccc2OC)=NC3)ccc1C(=O)O [Alisertib]; settings: max 10 µM
How it was run: as §1

Gefitinib = compound: COc1cc2ncnc(Nc3ccc(F)c(Cl)c3)c2cc1OCCCN1CCOCC1 [Gefitinib]; settings: max 10 µM
How it was run: as §1

Prexasertib = compound: COc1cccc(OCCCN)c1-c1cc(Nc2cnc(C#N)cn2)n[nH]1 [Prexasertib]; settings: max 1 µM
How it was run: as §1

Doxorubicin = compound: COc1cccc2c1C(=O)c1c(O)c3c(c(O)c1C2=O)C[C@@](O)(C(=O)CO)C[C@@H]3O[C@H]1C[C@H](N)[C@H](O)[C@H](C)O1 [Doxorubicin]; settings: max 1 µM
How it was run: as §1

AZD5153 = compound: COc1nnc2ccc(N3CCC(c4ccc(OCCN5CCN(C)C(=O)[C@H]5C)cc4)CC3)nn12 [AZD5153]; settings: max 1 µM
How it was run: as §1

Lapatinib = compound: CS(=O)(=O)CCNCc1ccc(-c2ccc3ncnc(Nc4ccc(OCc5cccc(F)c5)c(Cl)c4)c3c2)o1 [Lapatinib]; settings: max 10 µM
How it was run: as §1

AZD8186 = compound: C[C@@H](Nc1cc(F)cc(F)c1)c1cc(C(=O)N(C)C)cc2c(=O)cc(N3CCOCC3)oc12 [AZD8186]; settings: max 3 µM
How it was run: as §1

Crizotinib = compound: C[C@@H](Oc1cc(-c2cnn(C3CCNCC3)c2)cnc1N)c1c(Cl)ccc(F)c1Cl [Crizotinib]; settings: max 10 µM
How it was run: as §1

Savolitinib = compound: C[C@@H](c1ccc2nccn2c1)n1nnc2ncc(-c3cnn(C)c3)nc21 [Savolitinib]; settings: max 1 µM
How it was run: as §1

AZD6738 = compound: C[C@@H]1COCCN1C2=NC(=NC(=C2)C3(CC3)[S@](=N)(=O)C)C4=C5C=CNC5=NC=C4 [AZD6738]; settings: max 10 µM
How it was run: as §1

AZD5991 = compound: Cc1c2c(nn1C)CSCc1cc(n(C)n1)CSc1cc(c3ccccc3c1)OCCCc1c(C(=O)O)n(C)c3c-2c(Cl)ccc13 [AZD5991]; settings: max 1 µM
How it was run: as §1

AZD7648 = compound: Cc1cc2ncnn2cc1Nc1ncc2c(n1)n(C1CCOCC1)c(=O)n2C [AZD7648]; settings: max 10 µM
How it was run: as §1

Taselisib = compound: Cc1nc(-c2cn3c(n2)-c2ccc(-c4cnn(C(C)(C)C(N)=O)c4)cc2OCC3)n(C(C)C)n1 [Taselisib]; settings: max 10 µM
How it was run: as §1

Selumetinib = compound: Cn1cnc2c(F)c(Nc3ccc(Br)cc3Cl)c(C(=O)NOCCO)cc21 [Selumetinib]
How it was run: as §1

Olaparib = compound: O=C(c1cc(Cc2n[nH]c(=O)c3ccccc23)ccc1F)N1CCN(C(=O)C2CC2)CC1 [Olaparib]; settings: max 10 µM
How it was run: as §1

Cell Line | IC50, cell viability 72 h (Capivasertib; max 10 µM) [nM] | IC50, cell viability 72 h (AZD1775; max 3 µM) [nM] | IC50, cell viability 72 h (Trametinib) [nM] | IC50, cell viability 72 h (Palbociclib) [nM] | IC50, cell viability 72 h (AZD1390) [nM] | IC50, cell viability 72 h (Venetoclax) [nM] | IC50, cell viability 72 h (Dasatinib) [nM] | IC50, cell viability 72 h (SG3199) [nM] | IC50, cell viability 72 h (AZD2811) [nM] | IC50, cell viability 72 h (SN-38) [nM] | IC50, cell viability 72 h (AZD0156; max 3 µM) [nM] | IC50, cell viability 72 h (AZD4320) [nM] | IC50, cell viability 72 h (Alisertib) [nM] | IC50, cell viability 72 h (Gefitinib) [nM] | IC50, cell viability 72 h (Prexasertib) [nM] | IC50, cell viability 72 h (Doxorubicin) [nM] | IC50, cell viability 72 h (AZD5153) [nM] | IC50, cell viability 72 h (Lapatinib) [nM] | IC50, cell viability 72 h (AZD8186) [nM] | IC50, cell viability 72 h (Crizotinib) [nM] | IC50, cell viability 72 h (Savolitinib) [nM] | IC50, cell viability 72 h (AZD6738) [nM] | IC50, cell viability 72 h (AZD5991) [nM] | IC50, cell viability 72 h (AZD7648) [nM] | IC50, cell viability 72 h (Taselisib) [nM] | IC50, cell viability 72 h (Selumetinib; max 10 µM) [nM] | IC50, cell viability 72 h (Olaparib) [nM] | IC50, cell viability 72 h (Capivasertib; max 3 µM) [nM] | IC50, cell viability 72 h (AZD1775; max 1 µM) [nM] | IC50, cell viability 72 h (AZD0156; max 1 µM) [nM] | IC50, cell viability 72 h (Selumetinib; max 3 µM) [nM]
TE-4 (Esophageal Squamous Cell Carcinoma) | 2910 | 1020 | 125 | > 10000 | > 300 | > 1000 | > 2000 | > 1 | > 1000 | > 300 | > 3000 | > 1000 | > 10000 | 990 | 334 | > 1000 | > 1000 | 264 | > 3000 | > 10000 | > 1000 | > 10000 | > 1000 | > 10000 | 381 | > 10000 | > 10000 | – | – | – | –
CAL-51 (Breast Carcinoma) | 4410 | 583 | > 1000 | > 10000 | > 300 | > 1000 | > 2000 | > 1 | > 1000 | 53 | > 3000 | > 1000 | 6960 | > 10000 | 25.3 | 415 | 469 | > 10000 | > 3000 | > 10000 | > 1000 | 1510 | > 1000 | > 10000 | 1300 | > 10000 | > 10000 | – | – | – | –
639-V (Bladder Carcinoma) | > 10000 | 2210 | > 1000 | > 10000 | > 300 | > 1000 | 1380 | > 1 | > 1000 | 3.66 | > 3000 | > 1000 | 2980 | > 10000 | 948 | 574 | 257 | > 10000 | > 3000 | > 10000 | > 1000 | > 10000 | > 1000 | > 10000 | 2460 | > 10000 | > 10000 | – | – | – | –
HCC-15 (Squamous Cell Lung Carcinoma) | > 10000 | 1350 | 164 | > 10000 | > 300 | > 1000 | > 2000 | > 1 | 657 | > 300 | > 3000 | 216 | 181 | > 10000 | > 1000 | > 1000 | > 1000 | > 10000 | > 3000 | > 10000 | > 1000 | > 10000 | > 1000 | > 10000 | > 10000 | 4440 | > 10000 | – | – | – | –
KARPAS-231 (B-Cell Non-Hodgkin's Lymphoma) | > 10000 | 123 | > 1000 | > 10000 | > 300 | 7 | > 2000 | > 1 | 264 | 1.68 | > 3000 | 21.2 | 1020 | > 10000 | 12.5 | 899 | > 1000 | > 10000 | > 3000 | > 10000 | > 1000 | 6030 | 31.4 | > 10000 | > 10000 | > 10000 | > 10000 | – | – | – | –
UMC-11 (Other Solid Carcinomas) | > 10000 | > 3000 | > 1000 | > 10000 | > 300 | > 1000 | > 2000 | > 1 | 103 | > 300 | > 3000 | > 1000 | 1210 | > 10000 | 57.5 | > 1000 | 289 | > 10000 | > 3000 | 5910 | > 1000 | > 10000 | > 1000 | > 10000 | > 10000 | > 10000 | > 10000 | – | – | – | –
MHH-PREB-1 (B-Cell Non-Hodgkin's Lymphoma) | > 10000 | 935 | > 1000 | > 10000 | > 300 | > 1000 | > 2000 | > 1 | > 1000 | 58.4 | > 3000 | > 1000 | > 10000 | > 10000 | 8.91 | 317 | 756 | > 10000 | > 3000 | 8080 | > 1000 | 2080 | > 1000 | > 10000 | > 10000 | > 10000 | > 10000 | – | – | – | –
SW626 (Colorectal Carcinoma) | > 10000 | 1490 | 111 | > 10000 | > 300 | > 1000 | > 2000 | > 1 | > 1000 | > 300 | > 3000 | > 1000 | > 10000 | > 10000 | 127 | > 1000 | 150 | > 10000 | > 3000 | > 10000 | > 1000 | > 10000 | > 1000 | > 10000 | > 10000 | 2810 | > 10000 | – | – | – | –
OVCAR-8 (Ovarian Carcinoma) | > 10000 | 1370 | > 1000 | > 10000 | > 300 | > 1000 | 1540 | > 1 | > 1000 | 18.7 | > 3000 | > 1000 | 7630 | > 10000 | 13.4 | 257 | 198 | > 10000 | > 3000 | > 10000 | > 1000 | 6140 | > 1000 | > 10000 | > 10000 | > 10000 | > 10000 | – | – | – | –
CTB-1 (B-Cell Non-Hodgkin's Lymphoma) | – | – | > 1000 | – | – | > 1000 | – | > 1 | 249 | 7.48 | – | > 1000 | 435 | – | 16.4 | 248 | – | – | > 3000 | – | – | 2010 | > 1000 | > 10000 | > 10000 | – | > 10000 | > 3000 | 388 | > 1000 | > 3000
